Entries after “also recorded” stand apart in the source; their conditions may differ.

One test deals with human β cells. Description: [Ca2+]i imaging (Fura-2) of glucose-responsive human islet cells. The conditions noted are these: ATPγS 50 μM. In kind it is cell-based. The source says: (§1) Islet Isolation. Islets were isolated as previously described (57). Monkey islets were isolated from cynomolgus monkeys (Macacca fascicularis) >4 years of age at the time of pancreas procurement, as previously described (58). Pig pancreata were procured from the local slaughterhouse. Mice (C57BL/6) and rat (Lewis rat; Harlan) islets were isolated using a rodent-islet isolation technique (59). All animal protocols were approved by the University of Miami Care and Use Committee. Human pancreatic islets were obtained from the Human Islet Cell Processing Facility at the Diabetes Research Institute, University of Miami Miller School of Medicine or from the Islet Cell Resource basic science islet distribution program, Islet Cell Resource Centers (ICRs) Consortium, Division of Clinical Research, National Center for Research Resources, National Institutes of Health. Human islets were dissociated into single cells using enzyme-free cell dissociation buffer (Invitrogen). Islets and islets cells from Q:1 all species were cultured identically (37° C. and 5% CO2) inCMRL Q:2 medium-1066 (Invitrogen), niacinamide (10 mM; Sigma), ITS (BD Biosciences), Zn2SO4 (15 μM, Sigma), GlutaMAX (2 mM; Invitrogen), Hepes (25 mM; Sigma), FBS (10%; Invitrogen), and penicillinstreptomycin (100 IU/mL-100 μg/mL; Invitrogen).
[Ca^2+]i; Imaging. [Ca^2+]i imaging was performed as previously described (8, 36). Dispersed islet cells were immersed in Hepes-buffered solution (125 mMNaCl, 5.9 mMKCl, 2.56 mMCaCl2, 1 mMMgCl2, 25 mMHepes, and 0.1% BSA, pH7.4). Glucose was added to give a final concentration of 3 mM. Islets or dispersed islet cells were incubated in Fura-2 AM (2 μM; 1 h) and placed in a closed small volume imaging chamber (Warner Instruments). Stimuli were applied with the bathing solution. Islets loaded with Fura-2 were excited alternatively at 340 and 380 nm with a monochromator light source (Cairn Research Optoscan Monochromator; Cairn Research Ltd). Images were acquired with a Hamamatsu camera (Hamamatsu) attached to a Zeiss Axiovert 200 microscope (Carl Zeiss). Changes in the 340/380 fluorescence emission ratio over time were analyzed in individual islets and dispersed cells using Kinetic Imaging AQM Advance software (Kinetic Imaging). Peak changes in the fluorescence ratio constituted the response amplitude. Beta cells were distinguished from other endocrine cells by their [Ca^2+]i, responses to high glucose concentrations, and alpha cells were identified by their [Ca^2+]i responses to kainate (glutamate receptor agonist) (8, 36).

A further test deals with monkey islets. Description: Insulin secretion from perifused monkey islets. In kind it is cell-based, cynomolgus monkeys (Macacca fascicularis). The settings on record: increasing ATP concentrations.
Excerpt: as §1, with “Islets and islets cells from Q:1 all species were cultured identically (37° C. and 5% CO2) inCMRL Q:2 medium-1066 (Invitrogen), niacinamide (10 mM; Sigma), ITS (BD Biosciences), Zn2SO4 (15 μM, Sigma), GlutaMAX (2 mM; Invitrogen), Hepes (25 mM; Sigma), FBS (10%; Invitrogen), and penicillinstreptomycin (100 IU/mL-100 μg/mL; Invitrogen).” left out
(§2) Insulin and Glucagon Secretion. Insulin and glucagon secretion were measured as previously described (8, 36). […] Hormone release in the perifusate was determined with the human or mouse Endocrine LINCOplex Kit following manufacturer's instructions (Lincoresearch). […]

The subject of another test is pig islets. Kind of test: Glucagon secretion from perifused pig islets. The class given is cell-based.
Excerpt: as §1, with “Islets and islets cells from Q:1 all species were cultured identically (37° C. and 5% CO2) inCMRL Q:2 medium-1066 (Invitrogen), niacinamide (10 mM; Sigma), ITS (BD Biosciences), Zn2SO4 (15 μM, Sigma), GlutaMAX (2 mM; Invitrogen), Hepes (25 mM; Sigma), FBS (10%; Invitrogen), and penicillinstreptomycin (100 IU/mL-100 μg/mL; Invitrogen).” left out
as §2

As for `Nc1ncnc2c1ncn2[C@@H]1O[C@H](COP(=O)(O)OP(=O)(O)OP(=O)(O)O)[C@@H](O)[C@H]1O` [ATP], in the test on human β cells (human β cells identified by response to high glucose (11 or 16 mM), recorded at 3 mM glucose, BzATP 50 μM), the “[Ca2+]i response of β cells to the agonist” value is “elicited repeatable [Ca^2+]i responses; also recorded: elicited large insulin and [Ca^2+]i, responses”. Besides, the “[Ca2+]i responses to the agonist in the nominal absence of extracellular Ca2+” value with human β cells (human β cells, nominal 0 Ca2+ (+1 mM EGTA)) is “reduced [Ca^2+]i responses to ATP”. Moreover, the “insulin response of monkey islets” value in the test on monkey islets is given as “responded to increasing concentrations of ATP like human islets”. For the same compound, the “glucagon response of pig islets” value in the test with pig islets was “difficult to discern”.
